Laboratory results from patent publication US20090227602A1, “COMPOSITIONS AND TREATMENTS FOR INHIBITING KINASE AND/OR HMG-COA REDUCTASE” (priority 2005, published 2009).
Where a name gives a salt, the structure may show the parent alone. Read-outs that look alike come from different tables or passages of the source.

What was measured:
[1] = target: T1, recombinant human p38α MAPK (Homo sapiens, UniProt Q16539); assay: Human p38α MAP kinase inhibition assay (cell-free); format: biochemical; settings: MBP substrate, 100 μM ATP
T1 construct: purchased UBI 14-251; host or cells: E. coli
Description: (§1) The biological activities of compounds of the present invention were measured in assays which include: • 1) Inhibition of rat liver HMG-CoA reductase. Further details on the assay are present in Heller, R. A.; Gould, R. G. Biochem. Biophys. Research Commun. 1973, 50, 859 and Kubo, M.; Strott, C. A.; Endocrinology 1987, 120, 214. • 2) Inhibition of recombinant human p38αMAPK • 3) Inhibition of lipopolysaccharide (LPS)-stimulated release of tumor necrosis factor alpha (TNFα) from human peripheral blood mononuclear cells (PBMC).
Human p38αMAP Kinase Inhibition Assay: In vitro cell-free p38αMAP kinase inhibition assays were conducted by the method as described in Clerk et al., FEBS Lett., 426:93-96 (1998) for a number of lactones in formulas I/IIa/IIb. Briefly, human recombinant p38α protein kinase expressed in E. coli (UBI #14-251) was used. Myelin basic protein (MBP, UBI #13-110) was employed as substrate, and microtiter plate wells were coated with MBP (0.01 mg/ml) overnight at 4° C. Candidate compound and/or vehicle was preincubated with 0.075 μg/mL enzyme in modified HEPES buffer pH 7.4 at 25° C. for 15 minutes. The reaction was initiated by addition of 100 μM ATP and allowed to proceed for another 60 minutes. The reaction was terminated by aspirating the solution. Phosphorylated MBP was detected by incubation with a mouse monoclonal IgG2a anti-phosphoMBP antibody. Bound anti-phosphoMBP antibody was quantitated by incubation with a HRP conjugated goat anti-mouse IgG. The protein kinase activity was proportional to the readings of optical density at 405 nm resulting from reaction with an ABTS Microwell Peroxidase Substrate System.

[2] = target: T2, rat liver hydroxymethylglutaryl-CoA reductase (Rattus norvegicus, UniProt P51639); assay: Inhibition of rat liver HMG-CoA reductase; format: biochemical; settings: rat liver HMG-CoA reductase activity inhibited by 50%; read-out: HMG-CoA R IC50
T2 sequence (P51639 1-887): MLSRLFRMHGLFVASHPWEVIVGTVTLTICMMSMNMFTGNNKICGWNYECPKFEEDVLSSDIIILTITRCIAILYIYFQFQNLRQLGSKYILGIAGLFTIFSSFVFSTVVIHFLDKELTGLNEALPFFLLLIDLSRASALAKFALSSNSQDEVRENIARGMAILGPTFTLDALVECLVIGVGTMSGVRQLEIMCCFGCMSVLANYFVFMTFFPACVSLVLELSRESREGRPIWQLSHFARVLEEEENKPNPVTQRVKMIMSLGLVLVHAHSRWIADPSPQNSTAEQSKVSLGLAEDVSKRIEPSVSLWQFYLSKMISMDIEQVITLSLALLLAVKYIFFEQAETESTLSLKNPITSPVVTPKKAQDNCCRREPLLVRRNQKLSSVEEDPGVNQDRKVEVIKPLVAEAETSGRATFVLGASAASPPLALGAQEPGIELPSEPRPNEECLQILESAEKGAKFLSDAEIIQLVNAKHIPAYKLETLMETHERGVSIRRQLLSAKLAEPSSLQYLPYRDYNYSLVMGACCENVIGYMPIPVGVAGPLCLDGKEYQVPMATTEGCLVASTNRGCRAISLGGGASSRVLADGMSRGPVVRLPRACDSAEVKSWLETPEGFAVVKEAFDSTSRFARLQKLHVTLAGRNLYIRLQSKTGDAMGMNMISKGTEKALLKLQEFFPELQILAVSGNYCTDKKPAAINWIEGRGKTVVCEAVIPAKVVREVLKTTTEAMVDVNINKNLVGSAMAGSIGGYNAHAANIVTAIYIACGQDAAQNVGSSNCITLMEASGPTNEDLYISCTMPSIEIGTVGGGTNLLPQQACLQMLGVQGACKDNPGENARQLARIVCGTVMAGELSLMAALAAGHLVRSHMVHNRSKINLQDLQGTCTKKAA
Description: as §1

[3] = tested on: lipopolysaccharide-stimulated release of TNFα from human peripheral blood mononuclear cells (PBMC); assay: Whole cell LPS-stimulated TNF-α release assay; format: cell-based; settings: read-out: TNFα Release IC50
Description: as §1
Whole Cell LPS-Stimulated TNF-α Release Assay: The procedure as described in Welker et al., Int. Arch. Allergy and Immunol. 109:110-115 (1996) was followed. Briefly, a candidate compound and/or vehicle was preincubated with human peripheral blood mononuclear leukocytes (PBML, 5×10^5/ml) cells in AIM-V medium pH 7.4 for 2 hours. Lipopolysaccharide (LPS, 25 ng/ml) was added to stimulate the cells, which was incubated overnight at 37° C. TNF-α cytokine levels in the conditioned medium was then quantitated using a sandwich ELISA kit.

T1 sequence (Q16539 whole entry): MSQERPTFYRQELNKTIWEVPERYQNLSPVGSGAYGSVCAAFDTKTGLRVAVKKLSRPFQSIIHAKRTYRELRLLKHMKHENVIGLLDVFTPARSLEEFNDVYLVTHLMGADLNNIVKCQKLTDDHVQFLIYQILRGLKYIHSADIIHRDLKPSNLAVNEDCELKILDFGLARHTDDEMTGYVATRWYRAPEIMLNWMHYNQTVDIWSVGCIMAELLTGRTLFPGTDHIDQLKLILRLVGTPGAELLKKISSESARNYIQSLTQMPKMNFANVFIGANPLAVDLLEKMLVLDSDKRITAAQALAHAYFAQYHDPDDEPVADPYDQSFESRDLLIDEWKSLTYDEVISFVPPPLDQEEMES

Compound | IC50 [1] | IC50 [2] | IC50 ([3]; LPS-stimulated human PBMC) | IC50 ([3]; Homo sapiens, PBMC)
CC(C)(C)c1nc(-c2ccc(F)cc2)c(-c2ccncc2)n1/C=C/[C@@H](O)C[C@@H](O)CC(=O)O (racemic) [Example 33, (3R,5S,E) and (3S,5R,E)-7-(2-tert-butyl-4-(4-fluorophenyl)-5-(pyridin-4-yl)-1H-imidazol-1-yl)-3,5-dihydroxyhept-6-enoic acid sodium salt] | 6000 nM | 11 nM | 230000 nM | –
O=C(O)C[C@H](O)C[C@H](O)CCn1c(-c2ccccc2)nc(-c2ccc(F)cc2)c1-c1ccncn1 [Example 39, (3R,5R)-7-(4-(4-fluorophenyl)-2-phenyl-5-(pyrimidin-4-yl)-1H-imidazol-1-yl)-3,5-dihydroxyheptanoic acid calcium salt] | 14000 nM | > 1000 nM | – | > 300000 nM
CC(C)(C)c1nc(-c2ccc(F)cc2)c(-c2ccncc2)n1/C=C/[C@@H]1C[C@@H](O)CC(=O)O1 (racemic) [Example 34, (4R,6S) and (4S,6R)-6-((E)-2-(2-tert-butyl-4-(4-fluorophenyl)-5-(pyridin-4-yl)-1H-imidazol-1-yl)vinyl)-4-hydroxytetrahydro-2H-pyran-2-one] | 1800 nM | – | 190000 nM | –
O=C1C[C@H](O)C[C@@H](CCn2c(-c3ccccc3)nc(-c3ccc(F)cc3)c2-c2ccncn2)O1 [Example 40, (4R,6R)-6-(2-(4-(4-fluorophenyl)-2-phenyl-5-(pyrimidin-4-yl)-1H-imidazol-1-yl)ethyl)-4-hydroxytetrahydro-2H-pyran-2-one] | 1400 nM | – | 26000 nM | –

These reach a lower IC50 [1]. Values come first.

IC50 [1] | IC50 [2] | Compound | IC50 ([3]; LPS-stimulated human PBMC) | IC50 ([3]; Homo sapiens, PBMC)
< 100 nM | – | CC(C)c1nc(-c2ccc(F)cc2)c(-c2ccnc(Nc3ccccc3)n2)n1/C=C/[C@@H]1C[C@@H](O)CC(=O)O1 (racemic) [Example 29, (4R,6S) and (4S,6R)-6-((E)-2-(4-(4-fluorophenyl)-2-isopropyl-5-(2-(phenylamino)pyrimidin-4-yl)-1H-imidazol-1-yl)vinyl)-4-hydroxytetrahydro-2H-pyran-2-one] | 19000 nM | –
< 100 nM | 98 nM | CC(C)c1nc(-c2ccc(F)cc2)c(-c2ccnc(Nc3ccccc3)n2)n1CC[C@@H](O)C[C@@H](O)CC(=O)O [Example 25, (3R,5R)-7-(4-(4-fluorophenyl)-2-isopropyl-5-(2-(phenylamino)pyrimidin-4-yl)-1H-imidazol-1-yl)-3,5-dihydroxyheptanoic acid sodium salt] | 9700 nM | –
270 nM | 4.8 nM | CC(C)c1nc(-c2ccc(F)cc2)c(-c2ccnc(Nc3ccccc3)n2)n1/C=C/[C@@H](O)C[C@@H](O)CC(=O)O (racemic) [Example 28, (3R,5S,E) and (3S,5R,E)-7-(4-(4-fluorophenyl)-2-isopropyl-5-(2-(phenylamino)pyrimidin-4-yl)-1H-imidazol-1-yl)-3,5-dihydroxyhept-6-enoic acid sodium salt] | 9700 nM | –
110 nM | – | CC(C)c1nc(-c2ccc(F)cc2)c(-c2ccnc(Nc3ccccc3)n2)n1CC[C@@H]1C[C@@H](O)CC(=O)O1 [Example 24, (4R,6R)-6-(2-(4-(4-fluorophenyl)-2-isopropyl-5-(2-(phenylamino)pyrimidin-4-yl)-1H-imidazol-1-yl)ethyl)-4-hydroxytetrahydro-2H-pyran-2-one] | < 3000 nM | –
